Calls of active or inactive are those of the source. The calls are words filed in the database; no cut-off is given here.
Columns and labels:
[1] = biological target: T1, Protein cereblon/Tubulin beta (Homo sapiens) (UniProt P68371+Q9H4B7+Q13509+P04350+Q3ZCM7+P07437+Q13885+Q9BVA1+Q9BUF5+Q96SW2+A6NNZ2); experiment: Protac activity at CRBN/beta-tubulin in human A549 cells assessed as reduction in beta-tubulin level at 0.25 uM after 48 hrs by immunoblotting analysis; assay type: cell-based; parameters: scale not given: the % may be the effect or the level left
HEK-293T = experiment: Cytotoxicity against HEK293T cells assessed as effect on cell viability at 20 uM; assay type: toxicity, cell-based; settings: human
A549 [2] = experiment: Inhibition of cell growth in human A549 cells incubated for 72 hrs by SRB method; assay type: functional, cell-based
[3] = biological target: T1, Protein cereblon/Tubulin beta (Homo sapiens); experiment: Protac activity at CRBN/beta-tubulin in human A549/Taxol cells assessed as reduction in beta-tubulin level at 0.25 uM pretreated with pomalidomide for 2 hrs followed by compound addition and measured after 48 hrs by immunoblotting analysis; assay type: cell-based
[4] = biological target: T2, Protein cereblon/Tubulin beta-3 chain (Homo sapiens, UniProt Q13509+Q96SW2); experiment: Protac activity at CRBN/beta3-tubulin in human A549 cells assessed as reduction in beta3-tubulin level at 0.25 uM by immunoblotting analysis; assay type: cell-based; settings: time 6-72 hrs, TDE = time-dependent effect
T2 sequence (Q13509 whole entry, looked up): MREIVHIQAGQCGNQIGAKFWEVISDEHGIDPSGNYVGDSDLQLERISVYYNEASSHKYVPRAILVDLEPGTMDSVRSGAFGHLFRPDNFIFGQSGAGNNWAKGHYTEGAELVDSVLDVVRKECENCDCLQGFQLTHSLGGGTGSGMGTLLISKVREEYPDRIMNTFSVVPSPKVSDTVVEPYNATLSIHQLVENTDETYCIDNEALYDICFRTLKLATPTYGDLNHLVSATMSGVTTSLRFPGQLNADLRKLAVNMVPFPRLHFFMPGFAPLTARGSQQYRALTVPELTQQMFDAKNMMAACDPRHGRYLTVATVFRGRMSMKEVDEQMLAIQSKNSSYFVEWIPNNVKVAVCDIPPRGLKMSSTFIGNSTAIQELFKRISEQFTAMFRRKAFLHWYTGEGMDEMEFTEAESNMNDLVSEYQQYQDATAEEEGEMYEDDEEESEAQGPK
T2 sequence (Q96SW2 whole entry, looked up): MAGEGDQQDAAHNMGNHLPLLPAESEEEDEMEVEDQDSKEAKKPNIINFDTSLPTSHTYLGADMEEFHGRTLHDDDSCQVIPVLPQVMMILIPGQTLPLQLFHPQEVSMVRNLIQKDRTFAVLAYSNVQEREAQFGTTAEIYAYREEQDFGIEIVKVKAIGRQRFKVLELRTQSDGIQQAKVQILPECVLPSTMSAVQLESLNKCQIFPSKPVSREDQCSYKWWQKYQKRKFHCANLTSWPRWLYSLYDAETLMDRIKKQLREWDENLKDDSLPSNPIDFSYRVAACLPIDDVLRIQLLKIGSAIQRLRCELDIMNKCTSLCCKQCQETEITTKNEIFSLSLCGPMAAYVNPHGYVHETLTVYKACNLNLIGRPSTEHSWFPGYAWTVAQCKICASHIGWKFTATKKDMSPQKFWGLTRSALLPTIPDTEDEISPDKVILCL

[5] = biological target: T3, Protein cereblon-alpha tubulin (Homo sapiens) (UniProt P0DPH7+P68366+Q71U36+P68363+Q9BQE3+Q6PEY2+A6NHL2+Q9NY65+Q96SW2); experiment: Protac activity at CRBN/alpha-tubulin in human HeLa cells assessed as reduction in alpha-tubulin level at 10 to 1000 nM incubated for 48 hrs by immunoblotting analysis; assay type: cell-based; settings: dose 10-1000 nM
A549 [6] = experiment: Antitumor activity against human A549 cells xenografted in nude mouse assessed as tumor growth inhibition at 15 mg/kg, […] administered once every 2 days for 23 days by Vernier caliper method; assay type: functional; settings: A549, 552 h, time 23 day, read-out: TGI
HepG2 [7] = experiment: Induction of apoptosis in human HepG2 cells; assay type: functional, cell-based
[8] = biological target: T1, Protein cereblon/Tubulin beta (Homo sapiens); experiment: Protac activity at CRBN/beta-tubulin in human A549 cells assessed as reduction in beta-tubulin level at 0.25 uM by immunoblotting analysis; assay type: cell-based; settings: time 6-72 hrs, TDE = time-dependent effect
[9] = biological target: T2, Protein cereblon/Tubulin beta-3 chain; experiment: Protac activity at CRBN/beta3-tubulin in human A549 cells assessed as reduction in beta3-tubulin level at 0.25 uM pretreated with CA-4 for 2 hrs followed by compound addition and measured after 24 hrs by immunoblotting analysis; assay type: cell-based
A549/TR [10] = experiment: Induction of cell cycle arrest in human A549/Taxol cells assessed as accumulation of cells at S phase at 0.01 uM incubated for 24 hrs by PI staining based flow cytometry analysis (reference value: 2.85%); assay type: functional
[11] = biological target: T3, Protein cereblon-alpha tubulin (Homo sapiens); experiment: Protac activity at CRBN/alpha-tubulin in human A549 cells assessed as reduction in alpha-tubulin level at 0.25 uM after 72 hrs by immunoblotting analysis; assay type: cell-based; parameters: scale not given: the % may be the effect or the level left
[12] = biological target: T2, Protein cereblon/Tubulin beta-3 chain; experiment: Protac activity at CRBN/beta3-tubulin in human HeLa cells assessed as reduction in beta3-tubulin level at 10 to 1000 nM incubated for 48 hrs by immunoblotting analysis; assay type: cell-based; settings: dose 10-1000 nM
A549/TR [13] = experiment: Inhibition of colony formation in human A549/Taxol cells incubated for 24 hrs followed by media replacement at every 3 days for 14 days by crystal violet staining based assay; assay type: functional, cell-based; settings: dose 2-50 nM, time 14.0 day
A549 [14] = experiment: Induction of cell cycle arrest in human A549 cells assessed as accumulation of cells at G0/G1 phase at 0.01 uM incubated for 24 hrs by PI staining based flow cytometry analysis (reference value: 66.75%); assay type: functional
A549/TR [15] = experiment: Antitumor activity against human A549/Taxol cells xenografted in nude mouse assessed as tumor growth inhibition at 15 mg/kg, ip administered once every 2 days for 23 days by Vernier caliper method; assay type: functional; settings: 552 h, time 23 day, read-out: TGI
[16] = biological target: T1, Protein cereblon/Tubulin beta (Homo sapiens); experiment: Protac activity at CRBN/beta-tubulin in human A549 cells assessed as reduction in beta-tubulin level at 0.25 uM pretreated for 48 hrs followed by compound washout and measured upto 12 hrs by immunoblotting analysis; assay type: cell-based
A549 [17] = experiment: Induction of cell cycle arrest in human A549 cells assessed as accumulation of cells at S phase at 0.01 uM incubated for 24 hrs by PI staining based flow cytometry analysis (reference value: 1.39%); assay type: functional
[18] = biological target: T3, Protein cereblon-alpha tubulin (Homo sapiens); experiment: Protac activity at CRBN/alpha-tubulin in human A549 cells assessed as reduction in alpha-tubulin level at 0.25 uM by immunoblotting analysis; assay type: cell-based; settings: time 6-72 hrs, TDE = time-dependent effect
[19] = biological target: T3, Protein cereblon-alpha tubulin (Homo sapiens); experiment: Protac activity at CRBN/alpha-tubulin in human A549 cells assessed as reduction in alpha-tubulin level at 0.25 uM pretreated with pomalidomide for 2 hrs followed by compound addition and measured after 24 hrs by immunoblotting analysis; assay type: cell-based
A549 [20] = experiment: Antiproliferative activity against human A549 cells incubated for 72 hrs; assay type: functional, cell-based; settings: A549, 72 h
A549/TR [21] = experiment: Induction of cell cycle arrest in human A549/Taxol cells assessed as accumulation of cells at G2/M phase at 0.002 uM incubated for 24 hrs by PI staining based flow cytometry analysis (reference value: 17.02%); assay type: functional
[22] = biological target: T2, Protein cereblon/Tubulin beta-3 chain; experiment: Protac activity at CRBN/beta3-tubulin in human A549 cells assessed as reduction in beta3-tubulin level at 0.01 to 1 uM incubated for 48 hrs by immunoblotting analysis; assay type: cell-based; settings: dose 0.01-1 µM
[23] = biological target: T2, Protein cereblon/Tubulin beta-3 chain; experiment: Protac activity at CRBN/beta3-tubulin in human A549 cells assessed as reduction in beta3-tubulin level at 0.25 uM pretreated with MG-132 followed by compound addition and measured after 24 hrs by immunoblotting analysis; assay type: cell-based
[24] = biological target: T1, Protein cereblon/Tubulin beta (Homo sapiens); experiment: Protac activity at CRBN/beta-tubulin in human HepG2 cells assessed as reduction in beta-tubulin level at 10 to 1000 nM incubated for 48 hrs by immunoblotting analysis; assay type: cell-based; settings: dose 10-1000 nM
[25] = biological target: T1, Protein cereblon/Tubulin beta (Homo sapiens); experiment: Protac activity at CRBN/beta-tubulin in human A549/Taxol cells assessed as reduction in beta-tubulin level at 0.25 uM pretreated with MG-132 followed by compound addition and measured after 48 hrs by immunoblotting analysis; assay type: cell-based
[26] = biological target: T3, Protein cereblon-alpha tubulin (Homo sapiens); experiment: Protac activity at CRBN/alpha-tubulin in human A549 cells assessed as reduction in alpha-tubulin level at 0.25 uM pretreated with CA-4 for 2 hrs followed by compound addition and measured after 24 hrs by immunoblotting analysis; assay type: cell-based
HUVEC = experiment: Antiangiogenic activity in HUVECs assessed as reduction in tube area at 2.5 nM incubated for 6 to 8 hrs by inverted microscopic analysis; assay type: functional, cell-based; settings: Homo sapiens, time 6-8 hrs
[27] = biological target: T2, Protein cereblon/Tubulin beta-3 chain; experiment: Protac activity at CRBN/beta3-tubulin in human A549/Taxol cells assessed as reduction in beta3-tubulin level at 0.25 uM pretreated with CA-4 for 2 hrs followed by compound addition and measured after 48 hrs by immunoblotting analysis; assay type: cell-based
HepG2 [28] = experiment: Induction of cell cycle arrest in human HepG2 cells assessed as G2/M phase arrest; assay type: functional, cell-based
[29] = biological target: T3, Protein cereblon-alpha tubulin (Homo sapiens); experiment: Protac activity at CRBN/alpha-tubulin in human MCF7 cells assessed as reduction in alpha-tubulin level at 10 to 1000 nM incubated for 48 hrs by immunoblotting analysis; assay type: cell-based; settings: dose 10-1000 nM
[30] = biological target: T2, Protein cereblon/Tubulin beta-3 chain; experiment: Protac activity at CRBN/beta3-tubulin in human A549/Taxol cells assessed as reduction in beta3-tubulin level at 0.25 uM pretreated with pomalidomide for 2 hrs followed by compound addition and measured after 48 hrs by immunoblotting analysis; assay type: cell-based

Activity [1]: 31.1%
IC50 (A549 [2]; A549, 72 h): 0.01 µM
Activity [3]: inactive
Activity [4]: Tde
Activity [5]: Active
Activity [8]: Tde
Activity [9]: inactive
Activity [11]: 43.7%
Activity [12]: Active
Activity [16]: Active
Activity [18]: Tde
Activity [19]: inactive
IC50 (A549 [20]): 0.01 µM
Activity [22]: Active
Activity [23]: inactive
Activity [24]: Active
Activity [25]: inactive
Activity [26]: inactive
Activity [27]: inactive
Activity [29]: Active
Activity [30]: inactive
Structure (SMILES): COc1ccc(/C=C\c2cc(OC)c(OC)c(OC)c2)cc1OC(=O)CCCNc1cccc2c1C(=O)N(C1CCC(=O)NC1=O)C2=O (stereo not drawn)
Activity (HEK-293T): Non-Toxic
inhibition (A549 [2]): Dose-Dependent Effect
inhibition in vivo at 15 mg/kg (A549 [6]): 34.1%
Activity (HepG2 [7]): Active
Activity (A549/TR [10]): 10.77%
inhibition (A549/TR [13]): Dose-Dependent Effect
Activity (A549 [14]): 16.29%
inhibition in vivo at 15 mg/kg (A549/TR [15]): 65.8%
Activity (A549 [17]): 15.35%
Activity (A549/TR [21]): 23.69%
Activity (HUVEC): Active
Activity (HepG2 [28]): Active

Source: ChEMBL document CHEMBL5518186, “Discovery of the cereblon-recruiting tubulin PROTACs effective in overcoming Taxol resistance in vitro and in vivo” (Eur J Med Chem, 2024)
